{
  "source": "patent US20130251731A1",
  "about": "“Tau Acetylation in the Pathogenesis of Alzheimers Disease and Other Related Tauopathies” (THE TRUSTEES OF THE UNIVERSITY OF PENNSYLVANIA, priority 2012, published 2013)",
  "key": {"[1]": {"system": "MT bundling in QBI-293 cells", "assay": "MT bundling in tau-transfected QBI-293 cells (immunofluorescence)", "assay_type": "cell-based", "settings": "ten fields/transfection", "description": "FIG. 2, comprising FIG. 2A through FIG. 2K, depicts the results of experiments which illustrate that tau acetylation in cells inhibits tau-mediated MT stabilization. FIG. 2A depicts the results of an experiment where Doxycycline (Dox)-treated HEK-T40 cells were cultured in the presence of either trichostatin A (TSA), nicotinamide (NCA) or both and pulse labelled with [^3H]-acetate for 2 h. Tau was immunoprecipitated, treated with λ-phosphatase where indicated, and analyzed by SDS-PAGE followed by autoradiography and exposure to film for 2 weeks. Total cellular lysates were analyzed by immunoblotting using anti-tau (T14/T46), PHF-1 and GAPDH antibodies. FIG. 2B illustrates the results of an experiment where cells transfected with CBP were treated with TSA and acetylated tau levels were determined by immunoprecipitation/immunoblot analysis using anti-acetylated lysine antibody. Cellular lysates were immunoblotted using T14/46, PHF-1, AT8 and GAPDH antibodies. FIG. 2C depicts the results of an experiment where cells were transfected with CBP and either wild-type (WT) HDAC6 or the catalytically dead (CD) HDAC6-H611A mutant and tau acetylation was determined by immunoblotting similar to FIG. 2B above. FIG. 2D depicts the results of an experiment where QBI-293 cells were transfected with WT T40, 2KR (K280/281R), 3KR (K163/280/281R) or 4KR (K163/280/281/369R) mutant T40 and cell lysates were immunoblotted using anti-acetyl-lysine and total tau (T14/T46) antibodies. FIG. 2E through FIG. 2G are images illustrating the results of an experiment where QBI-293 cells were transfected with WT T40 (FIG. 2E) and total MT bundling was determined by immunofluorescence using anti-acetylated tubulin antibodies as shown for WT (FIG. 2F). Merged images indicate stabilized microtubules as shown for WT (FIG. 2G). FIG. 2H through FIG. 2J are images illustrating the results of an experiment where QBI-293 cells were transfected with 4KQ (K163/280/281/369Q) (FIG. 2H) and MT bundling was determined by immunofluorescence using anti-acetylated tubulin antibodies as shown for 4KQ (FIG. 2I) and merged images (FIG. 2J). Representative images are shown from n=4 independent experiments. Note, WT tau (FIG. 2E-FIG. 2G), but not 4KQ (FIG. 2H-FIG. 2J), promotes robust MT bundling. Scale bar, […]. FIG. 2K is a graph illustrating the results of an experiment where QBI-293 cells were transfected with WT T40, K280Q, 4KQ (K163/280/281/369Q) or 4KR mutant plasmids and MT bundling was determined from tau-expressing cells by quantification of ten fields/transfection and values are represented as % MT bundling from tau-expressing cells. Error bars indicate standard error of the mean. *P value=0.006, ***P value=8.46×10^−6 as determined by Student's t-test. […]"}, "[2]": {"molecular_target": "T1, tau-K18 acetyltransferase activity (Homo sapiens, UniProt P10636)", "T1 construct": "made in house", "T1 sequence (P10636 561-685 limits assumed)": "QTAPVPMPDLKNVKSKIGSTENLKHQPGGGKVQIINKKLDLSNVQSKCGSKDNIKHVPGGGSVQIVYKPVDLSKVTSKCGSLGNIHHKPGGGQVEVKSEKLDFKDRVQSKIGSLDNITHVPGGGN", "assay": "Tau auto-acetylation filter binding assay, cofactor inhibition analysis", "assay_type": "biochemical", "settings": "25 μM tau, 450 μM [3H]-acetyl-CoA; for IC50: 1 hr at 37° C., read-out: IC50 for inhibition of acetyl-CoA-dependent tau-K18 acetyltransferase activity", "description": "Reactions were assembled in 50 μl of reaction buffer containing 50 mM Tris pH 8.0, 100 μM EDTA, and 10% glycerol. Unless specifically noted, reactions contained 25 μM of either WT tau-K18 or tau-K18-2CA mutant. The reactions were initiated by the addition of [^3H]-acetyl-CoA (2.35 Ci mmol^−1, Perkin Elmer) at concentrations ranging from 2.5 μM to 1 mM, incubated at 37° C., and allowed to proceed for 1 hr (unless otherwise noted). Reactions were stopped by the addition of 10 μl of 3 mM CoA, and 25 μl of the reaction was then spotted to a P81 filter paper (Whatman), washed in 10 mM HEPES pH 7.5 three times, and dried using acetone. Incorporated [^3H]-acetyl-CoA was then measured using the Perkin Elmer Tri-Carb 2800TR Liquid Scintillation Analyzer, and the molar amount of acetyl groups incorporated into tau were calculated from a standard curve of the radiolabeled acetyl-CoA.\nReactions were performed in the buffer described above and at 25 μM tau. Reactions included between 1 and 4000 μM of the inhibitors: CoA, acetonyl-CoA, or pantothenic acid. All reactions were initiated by the addition of 450 μM [^3H]-acetyl-CoA (2.35 Ci mmol^−1, Perkin Elmer), incubated for 1 hr at 37° C., and stopped by spotting 25 μl of the reaction to the P81 filter paper. Radiolabeled incorporation was measured as stated above. All data were analyzed using GraphPad Prism to determine kinetic parameters and IC50 values."}, "[3]": {"system": "acetylated tau in HEK-T40 cells", "assay": "Tau acetylation in HEK-T40 cells ([3H]-acetate labelling / immunoprecipitation)", "assay_type": "cell-based, human", "description": "FIG. 2, comprising FIG. 2A through FIG. 2K, depicts the results of experiments which illustrate that tau acetylation in cells inhibits tau-mediated MT stabilization. FIG. 2A depicts the results of an experiment where Doxycycline (Dox)-treated HEK-T40 cells were cultured in the presence of either trichostatin A (TSA), nicotinamide (NCA) or both and pulse labelled with [^3H]-acetate for 2 h. Tau was immunoprecipitated, treated with λ-phosphatase where indicated, and analyzed by SDS-PAGE followed by autoradiography and exposure to film for 2 weeks. Total cellular lysates were analyzed by immunoblotting using anti-tau (T14/T46), PHF-1 and GAPDH antibodies. FIG. 2B illustrates the results of an experiment where cells transfected with CBP were treated with TSA and acetylated tau levels were determined by immunoprecipitation/immunoblot analysis using anti-acetylated lysine antibody. […] FIG. 2C depicts the results of an experiment where cells were transfected with CBP and either wild-type (WT) HDAC6 or the catalytically dead (CD) HDAC6-H611A mutant and tau acetylation was determined by immunoblotting similar to FIG. 2B above. […] FIG. 2E through FIG. 2G are images illustrating the results of an experiment where QBI-293 cells were transfected with WT T40 (FIG. 2E) and total MT bundling was determined by immunofluorescence using anti-acetylated tubulin antibodies as shown for WT (FIG. 2F). […]"}, "[4]": {"system": "auto-acetylated substrate", "settings": "auto-acetylation, cited from earlier work; for Km: read-out: Km AcCoA [auto]"}, "[5]": {"system": "histones and microtubules", "settings": "substrate as listed (H4-21, H3p19, H3, microtubules); cited from earlier work"}, "[6]": {"assay": "Heparin-induced tau fibrillization assay quantified by Thioflavin-T binding", "assay_type": "biochemical", "settings": "10 μM tau proteins, 10 μM heparin, 4-h incubation", "description": "(§1) Recombinant full-length T40, 4R-tau MT-binding domain K18, or tau fibrils were acetylated by incubation with [^14C]-labeled acetyl-CoA in the presence or absence of CBP. FIG. 1A illustrates that the reaction products were analyzed by SDS-PAGE and Coomassie blue staining followed by overnight radiographic exposure using STORM phosphor-imager software. FIG. 1B depicts the results of an experiment where T40 or K18 proteins were incubated with acetyl-CoA and/or recombinant CBP and reaction products were subjected to immunoblot analysis using a polyclonal anti-tau-specific antibody for MT repeat domain (E10) and an anti-acetyl-lysine antibody. FIG. 1C is a graph depicting the MT assembly activities of K18 proteins as evaluated in light-scattering assays. Tubulin monomers (30 μM) were mixed with 40 μM tau proteins in MT assembly buffer supplemented with 2 mM guanosine triphosphate. MT assembly was determined by monitoring absorbance every minute at 350 nm using a SpectraMax plate reader. […] FIG. 1D is a graph illustrating the results of experiments where Tau proteins (10 μM) were evaluated in fibrillization reactions using 10 μM heparin to induce assembly. […] Samples were analysed by SDS-PAGE and Coomassie staining to monitor fibril formation. FIG. 1F illustrates the results of experiments where four-hour time points from fibrillization reactions were analysed by negative-staining EM. […]\nTau K18 protein was either mock acetylated or acetylated in vitro using acetyl-CoA substrate as indicated elsewhere herein. […] Protein concentrations were determined using the bicinchoninic acid protein assay (Pierce) with bovine serum albumin as the standard. Acetylated K18 and mock-treated K18 were assessed by a light-scattering assay as described elsewhere herein. […] The extent of fibrillization was assessed at different time points by ThT fluorescence assay, sedimentation analysis and negative staining EM as described elsewhere herein. For ThT fluorescence assay, ThT diluted in 100 mM glycine buffer (pH 8.5) was added and fluorometric readings were taken at 450 nm (excitation) and 510 nm (emission). […]"}, "tubulin": {"system": "tubulin", "assay": "MT assembly light-scattering assay", "assay_type": "biochemical", "settings": "30 μM tubulin, 40 μM tau proteins, 2 mM GTP", "description": "as §1"}},
  "data": [
    {"compound": "4KQ: tau acetylation mimetic K163/280/281/369Q", "values": [
      {"measurement": "% MT bundling from tau-expressing cells", "setting": "[1]", "value": "~7", "unit": "%"}
    ]},
    {"compound": "4KR: tau non-mimetic mutant K163/280/281/369R", "values": [
      {"measurement": "% MT bundling from tau-expressing cells", "setting": "[1]", "value": "~50", "unit": "%"}
    ]},
    {"compound": "CC(C)(COP(=O)(O)OP(=O)(O)OC[C@H]1O[C@@H](n2cnc3c(N)ncnc32)[C@H](O)[C@@H]1OP(=O)(O)O)[C@@H](O)C(=O)NCCC(=O)NCCS", "note": "[CoA]", "values": [
      {"measurement": "IC50", "setting": "[2]", "value": 59, "unit": "µM"}
    ]},
    {"compound": "CC(=O)CSCCNC(=O)CCNC(=O)[C@H](O)C(C)(C)COP(=O)(O)OP(=O)(O)OC[C@H]1O[C@@H](n2cnc3c(N)ncnc32)[C@H](O)[C@@H]1OP(=O)(O)O", "note": "[acetonyl-CoA]", "values": [
      {"measurement": "IC50", "setting": "[2]", "value": 668, "unit": "µM"}
    ]},
    {"compound": "CC(C)(CO)[C@@H](O)C(=O)NCCC(=O)O", "note": "[pantothenic acid]", "values": [
      {"measurement": "inhibition of tau activity (cofactor competition)", "setting": "[2]; between 1 and 4000 μM inhibitor", "value": "did not show significant inhibition"}
    ]},
    {"compound": "CC(/C=C/C(=O)NO)=C\\[C@@H](C)C(=O)c1ccc(N(C)C)cc1", "note": "[trichostatin A]", "values": [
      {"measurement": "acetylated tau levels", "setting": "[3]; HEK-T40 cells pulse labelled with [3H]-acetate for 2 h", "value": "dramatic increase in acetylated tau levels"},
      {"measurement": "acetylated tau (anti-acetyl-lysine)", "setting": "[3]; HEK-T40 cells transiently transfected with CBP", "value": "dramatic accumulation of acetylated tau"}
    ]},
    {"compound": "ESA1: MYST-family acetyltransferase, literature kinetics", "values": [
      {"measurement": "Km", "setting": "[4]", "value": 9.4, "unit": "µM"},
      {"measurement": "Kcat", "setting": "[5]", "value": 7.32, "unit": "min⁻¹"}
    ]},
    {"compound": "K18-K311D: K18 containing the K311D mutation, negative control", "values": [
      {"measurement": "fibrillization (ThT)", "setting": "[6]", "value": "did not fibrillize"}
    ]},
    {"compound": "K280Q: single K280Q acetylation mimetic of T40 tau", "values": [
      {"measurement": "% MT bundling from tau-expressing cells", "setting": "[1]", "value": "~40", "unit": "%"}
    ]},
    {"compound": "Rtt109 + Vps75: acetyltransferase listed for literature kinetics comparison", "values": [
      {"measurement": "Kcat [auto]", "setting": "[4]", "value": ".12 min⁻¹"},
      {"measurement": "Km", "setting": "[4]", "value": 912, "unit": "µM"},
      {"measurement": "Kcat", "setting": "[5]", "value": 22.5, "unit": "min⁻¹"}
    ]},
    {"compound": "WT tau: wild-type longest human tau isoform (T40) expressed in cells", "values": [
      {"measurement": "% MT bundling from tau-expressing cells", "setting": "[1]", "value": "~55", "unit": "%"}
    ]},
    {"compound": "acetylated K18: tau K18 protein acetylated in vitro using acetyl-CoA and CBP", "values": [
      {"measurement": "MT assembly (absorbance at 350 nm)", "setting": "tubulin", "value": "failed to promote MT assembly"},
      {"measurement": "fibrillization (ThT)", "setting": "[6]", "value": "fibrillized rapidly by 3 h"}
    ]},
    {"compound": "p300: nuclear acetyltransferase, literature kinetics", "values": [
      {"measurement": "Km", "setting": "[4]", "value": 3310, "unit": "µM"},
      {"measurement": "Kcat", "setting": "[5]", "value": 27.6, "unit": "min⁻¹"}
    ]}
  ]
}
